Measured values published in PubChem BioAssay AID248 (DTP/NCI, 2004).
Where “and” joins values, the source holds several entries; their conditions need not be identical. Equal values may be shown once. Toxic doses and inconclusive results are not listed. Cut-off read from the data, not from the text of the source: active = T/C of 150% or more; inactive = T/C below 125%.

Test system: L1210 leukemia ip in BDF1 mice, survival T/C
Experiment: NCI In Vivo Anticancer Drug Screen. Data for tumor model L1210 Leukemia (intraperitoneal) in B6D2F1 (BDF1) mice
Conditions: endpoint: mean survival time, higher = longer survival
How it was run: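 Read-out is survival time, reported as the treated-group measurement over the vehicle-control measurement.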

[1] = dose: 100.0 mg/kg/injection, schedule: Q04DX002 (ip), vehicle: Klucel (hydroxypropylcellulose) (HPC)
[2] = dose: 100.0 mg/kg/injection, schedule: Q04DX003 (ip), vehicle: Klucel (hydroxypropylcellulose) (HPC)
[3] = dose: 200.0 mg/kg/injection, schedule: Q04DX003 (ip), vehicle: Klucel (hydroxypropylcellulose) (HPC)
[4] = dose: 100.0 mg/kg/injection, schedule: Q04DX003 (ip), vehicle: saline with Tween-80
[5] = dose: 200.0 mg/kg/injection, schedule: Q04DX003 (ip), vehicle: saline with Tween-80
[6] = dose: 400.0 mg/kg/injection, schedule: Q04DX003 (ip), vehicle: saline with Tween-80
[7] = dose: 50.0 mg/kg/injection, schedule: Q01DX001 (ip), vehicle: saline
[8] = dose: 25.0 mg/kg/injection, schedule: Q04DX002 (ip), vehicle: Klucel (hydroxypropylcellulose) (HPC)
[9] = dose: 50.0 mg/kg/injection, schedule: Q04DX002 (ip), vehicle: Klucel (hydroxypropylcellulose) (HPC)
[10] = dose: 400.0 mg/kg/injection, schedule: Q04DX003 (ip), vehicle: Klucel (hydroxypropylcellulose) (HPC)
[11] = dose: 100.0 mg/kg/injection, schedule: Q01DX001 (ip), vehicle: carboxymethylcellulose (CMC)
[12] = dose: 200.0 mg/kg/injection, schedule: Q01DX001 (ip), vehicle: carboxymethylcellulose (CMC)
[13] = dose: 100.0 mg/kg/injection, schedule: Q01DX001 (ip), vehicle: saline
[14] = dose: 200.0 mg/kg/injection, schedule: Q01DX001 (ip), vehicle: saline
[15] = dose: 400.0 mg/kg/injection, schedule: Q01DX001 (ip), vehicle: saline
[16] = dose: 25.0 mg/kg/injection, schedule: Q04DX003 (ip), vehicle: saline with Tween-80
[17] = dose: 50.0 mg/kg/injection, schedule: Q04DX003 (ip), vehicle: saline with Tween-80

Measured: T/C

CN(C)C(=S)SCc1c(O)c(C(C)(C)C)cc2cc(C(C)(C)C)ccc12
inactive: [1] 105 % of control | dose: 200.0 mg/kg/injection, schedule: Q04DX002 (ip), vehicle: Klucel (hydroxypropylcellulose) (HPC) 110 % of control | dose: 400.0 mg/kg/injection, schedule: Q04DX002 (ip), vehicle: Klucel (hydroxypropylcellulose) (HPC) 102 % of control

O=C(OCS(=O)c1ccccc1)c1ccccc1 (stereo unspecified)
inactive: [2] 94 % of control | [3] 104 % of control

Nc1nc(N=Nc2ccc(O)cc2)cc(=O)[nH]1
inactive: dose: 50.0 mg/kg/injection, schedule: Q01DX009 (ip), vehicle: other 102 % of control | dose: 100.0 mg/kg/injection, schedule: Q01DX009 (ip), vehicle: other 107 % of control | dose: 100.0 mg/kg/injection, schedule: Q04DX002 (ip), vehicle: other 105 % of control | dose: 200.0 mg/kg/injection, schedule: Q01DX009 (ip), vehicle: other 94 % of control | dose: 200.0 mg/kg/injection, schedule: Q04DX002 (ip), vehicle: other 105 % of control | dose: 400.0 mg/kg/injection, schedule: Q01DX009 (ip), vehicle: other 103 % of control | dose: 400.0 mg/kg/injection, schedule: Q04DX002 (ip), vehicle: other 99 % of control

CCc1c(/C=C2/OC(=O)NC2=O)[nH]c(=S)[nH]c1=O
inactive: [4] 97 % of control | [5] 96 % of control | [6] 96 % of control

NCCC1CNCCN1.[Cl][Pd]([Cl])([Cl])[Cl] (stereo unspecified)
inactive: dose: 12.5 mg/kg/injection, schedule: Q01DX001 (ip), vehicle: saline 108 % of control | dose: 25.0 mg/kg/injection, schedule: Q01DX001 (ip), vehicle: saline 108 % of control | [7] 103 % of control | dose: 100.0 mg/kg/injection, schedule: Q01DX001 (ip), vehicle: DMSO 98 % of control

CC12CCC(O)C(C)(C)C1CCC1=C2CCC2(C)C(c3ccoc3)CCC12C (stereo unspecified)
inactive: dose: 50.0 mg/kg/injection, schedule: Q01DX001 (sc), vehicle: steriod suspending solution 111 % of control | dose: 100.0 mg/kg/injection, schedule: Q01DX001 (sc), vehicle: steriod suspending solution 115 % of control | dose: 200.0 mg/kg/injection, schedule: Q01DX001 (sc), vehicle: steriod suspending solution 105 % of control | dose: 400.0 mg/kg/injection, schedule: Q01DX001 (sc), vehicle: steriod suspending solution 109 % of control

COC(=O)C1=C(NC(=O)Nc2ccc([N+](=O)[O-])cc2)OC(C)(C)C1c1ccc(Cl)cc1 (stereo unspecified)
inactive: dose: 100.0 mg/kg/injection, schedule: Q04DX003 (ip), vehicle: acetone 92 % of control | dose: 200.0 mg/kg/injection, schedule: Q04DX003 (ip), vehicle: acetone 97 % of control | dose: 400.0 mg/kg/injection, schedule: Q04DX003 (ip), vehicle: acetone 97 % of control

OC1(C2(O)CCCC2)CCCC1
inactive: [4] 98 % of control | [5] 98 % of control | [6] 95 % of control

O=C1OC(c2ccccc2)=N/C1=C\c1ccccc1Cl
inactive: dose: 100.0 mg/kg/injection, schedule: Q04DX002 (ip), vehicle: saline with Tween-80 87 % of control | dose: 200.0 mg/kg/injection, schedule: Q04DX002 (ip), vehicle: saline with Tween-80 94 % of control

CC(=O)OC1CCC2(C)C(=CCC3C2CCC2(C)C3CC3C(c4ccccc4Br)=NN(c4ccccc4)C32C#N)C1 (stereo unspecified)
inactive: dose: 3.0 mg/kg/injection, schedule: Q04DX002 (ip), vehicle: Klucel (hydroxypropylcellulose) (HPC) 106 % of control | dose: 6.0 mg/kg/injection, schedule: Q04DX002 (ip), vehicle: Klucel (hydroxypropylcellulose) (HPC) 94 % of control and 107 % of control | dose: 12.0 mg/kg/injection, schedule: Q04DX002 (ip), vehicle: Klucel (hydroxypropylcellulose) (HPC) 100 % of control | [8] 104 % of control | [9] 114 % of control

Nc1nc(N)c(CCCOc2ccc(NC(=O)CCCc3ccc(NC(=O)CBr)cc3)cc2)c(N)n1
inactive: [2] 102 % of control | [3] 109 % of control | [10] 102 % of control

O=P(CCO)(c1ccccc1)c1ccccc1
inactive: [4] 112 % of control | [5] 101 % of control

BrP(Nc1ccccc1)(c1ccccc1)(c1ccccc1)c1ccccc1
inactive: dose: 10.0 mg/kg/injection, schedule: Q01DX001 (ip), vehicle: acetone 100 % of control | dose: 20.0 mg/kg/injection, schedule: Q01DX001 (ip), vehicle: acetone 101 % of control | dose: 40.0 mg/kg/injection, schedule: Q01DX001 (ip), vehicle: acetone 91 % of control

CCS(=O)(=O)OCCCl
inactive: dose: 25.0 mg/kg/injection, schedule: Q01DX009 (ip), vehicle: Klucel (hydroxypropylcellulose) (HPC) 94 % of control | [8] 97 % of control | dose: 50.0 mg/kg/injection, schedule: Q01DX009 (ip), vehicle: Klucel (hydroxypropylcellulose) (HPC) 93 % of control | [9] 94 % of control | [11] 112 % of control | [1] 102 % of control and 90 % of control | [12] 116 % of control

Clc1ccnc(NC2CCCCC2)c1
inactive: [13] 92 % of control | [14] 98 % of control | [15] 100 % of control

C=CCc1ccc(OCC(=O)O)c(OC)c1
inactive: [4] 106 % of control | [5] 93 % of control | [6] 97 % of control

CCCCCCC[n+]1ccc(C#N)cc1
inactive: dose: 75.0 mg/kg/injection, schedule: Q01DX001 (ip), vehicle: saline 103 % of control

O=C1C(=O)c2cccc3cccc1c23
inactive: dose: 100.0 mg/kg/injection, schedule: Q01DX001 (ip), vehicle: Klucel (hydroxypropylcellulose) (HPC) 88 % of control | dose: 100.0 mg/kg/injection, schedule: Q01DX009 (ip), vehicle: saline with Tween-80 90 % of control | dose: 200.0 mg/kg/injection, schedule: Q01DX001 (ip), vehicle: Klucel (hydroxypropylcellulose) (HPC) 93 % of control | dose: 200.0 mg/kg/injection, schedule: Q01DX009 (ip), vehicle: saline with Tween-80 89 % of control | dose: 400.0 mg/kg/injection, schedule: Q01DX001 (ip), vehicle: Klucel (hydroxypropylcellulose) (HPC) 97 % of control | dose: 400.0 mg/kg/injection, schedule: Q01DX009 (ip), vehicle: saline with Tween-80 89 % of control

O=C(Nc1cccc([N+](=O)[O-])c1)c1ccc(Cl)c(Cl)c1
inactive: [16] 115 % of control | [17] 96 % of control | [4] 99 % of control | [5] 86 % of control | dose: 300.0 mg/kg/injection, schedule: Q04DX003 (ip), vehicle: saline with Tween-80 86 % of control

COC1OC2COC(c3ccccc3)OC2C(O)C1OS(=O)(=O)c1ccc(C)cc1 (stereo unspecified)
inactive: [4] 87 % of control | [5] 87 % of control

NC(=O)c1c(Br)c(Br)c(Br)c(Br)c1C(=O)O (tested in a mixture with another compound)
inactive: [17] 96 % of control | [4] 91 % of control and 100 % of control and 90 % of control | [5] 93 % of control and 98 % of control | [6] 93 % of control and 90 % of control

c1cc2c3c(c1)nc(CCCc1nc4cccc5c4n1CCC5)n3CCC2
inactive: [16] 109 % of control | [17] 96 % of control | [4] 93 % of control and 87 % of control

CN(C)CCC(c1ccccc1)(c1ccccc1)c1ccccc1
inactive: dose: 50.0 mg/kg/injection, schedule: Q01DX001 (ip), vehicle: carboxymethylcellulose (CMC) 92 % of control | [11] 92 % of control | [12] 94 % of control

NC(=O)NCCC(=O)O
inactive: dose: 100.0 mg/kg/injection, schedule: Q04DX002 (ip), vehicle: saline 115 % of control | dose: 200.0 mg/kg/injection, schedule: Q04DX002 (ip), vehicle: saline 112 % of control | dose: 400.0 mg/kg/injection, schedule: Q04DX002 (ip), vehicle: saline 101 % of control

O=C1c2ccccc2C(=O)N1OCCCCON1C(=O)c2ccccc2C1=O
inactive: [7] 100 % of control | [13] 106 % of control | [14] 106 % of control | [15] 102 % of control

O=C1OC2(Cc3ccccc31)c1ccccc1-c1ccccc12
inactive: dose: 25.0 mg/kg/injection, schedule: Q04DX003 (ip), vehicle: Klucel (hydroxypropylcellulose) (HPC) 91 % of control | dose: 50.0 mg/kg/injection, schedule: Q04DX003 (ip), vehicle: Klucel (hydroxypropylcellulose) (HPC) 90 % of control | [2] 88 % of control | [3] 88 % of control | [10] 90 % of control

O=[N+]([O-])c1ccc(N=Cc2ccccc2)c(O)c1
inactive: [13] 93 % of control | [14] 98 % of control | [15] 98 % of control
